{"source": "patent US20110160262A1", "about": "“Method of treating retinal vein occlusion” (SANTEN PHARMACEUTICAL CO., LTD., priority 2005, published 2011)", "key": {"[1]": {"system": "laser-induced choroidal neovascularization", "experiment": "laser-induced choroidal neovascularization in rats", "type": "in vivo", "conditions": "rat", "description": "In order to study the inhibitory effect of compound represented by the general formula [I] or a salt thereof on angiogenesis, the effects of nafamostat, FUT-187 and camostat, which are compounds represented by the general formula [I] or salts thereof, on laser-induced choroidal neovascularization in rats were studied. As a comparative compound, ethyl-4-(6-guanidinohexanoyloxy)benzoate methanesulfonate (hereinafter referred to as “gabexate”) represented by the following formula [III] was used.\nA rat was given systemic anesthesia by intramuscular administration of 1 ml/kg of a mixed solution of a 5% (w/v) ketamine hydrochloride injectable solution and a 2% xylazine hydrochloride injectable solution (7:1), and a 0.5% (w/v) tropicamide-0.5% phenylephrine hydrochloride ophthalmic solution was instilled into the eyes to cause mydriasis, and then photocoagulation was carried out with a krypton laser photocoagulation apparatus. The photocoagulation was carried out in a posterior pole portion of ocular fundus at eight spots per eye sparsely by focusing on the retinal deep layer avoiding thick retinal vessels (coagulation conditions: spot size: 100 μm, output: 100 mW, coagulation time: 0.1 sec.). After the photocoagulation, the ocular fundus was photographed, and the site where the laser was irradiated was confirmed.\nNafamostat was dissolved in a 5% (w/v) glucose solution (prepared by dissolving D-glucose in physiological saline) to give a final concentration of 25 mg/ml, and the resulting nafamostat solution was intraperitoneally administered once a day at a dose of 1 ml/kg for 7 days including the day of surgery from the photocoagulation surgery. In the same manner, FUT-187 solutions at 25 mg/ml and 125 mg/ml and a camostat solution at 125 mg/ml were prepared, and each of the solutions was intraperitoneally administered once a day at a dose of 1 ml/kg for 7 days including the day of surgery from the photocoagulation surgery. In a comparative compound administration group, a solution obtained by dissolving gabexate in a glucose solution to give a final concentration of 50 mg/ml was administered in the same manner as above. In a vehicle administration group, a 5% (w/v) glucose solution was administered in the same manner.\nOn day 7 after photocoagulation, 0.1 ml of a 10% fluorescein solution was injected into the tail vein, and fluorescence fundus photography was carried out. In the fluorescence fundus photography, a spot where fluorescence leakage was not observed (absence of angiogenesis) was judged as negative, and a spot where fluorescence leakage was observed was judged as positive. When there are two photocoagulation sites where a little fluorescence leakage was observed, they were judged as positive (presence of angiogenesis). A neovascularization incidence rate was calculated in accordance with Equation 1. The neovascularization incidence rate was calculated based on the positive spot number relative to the 8 spots irradiated with a laser, and a choroidal neovascularization inhibition rate was calculated in accordance with Equation 2. The number of animals in each administration group is 4 to 7.\nEach of nafamostat and FUT-187 was dissolved in a 1% (w/v) methyl cellulose solution to give a final concentration of 20 mg/ml, and the resulting solution was orally administered three times a day at a dose of 5 ml/kg for 7 days including the day of surgery from the photocoagulation surgery. In the same manner, camostat was suspended in a 1% (w/v) methyl cellulose solution to give a final concentration of 20 mg/ml, and the resulting suspension was orally administered three times a day at a dose of 5 ml/kg for 7 days including the day of surgery from the photocoagulation surgery. In a vehicle administration group, a 1% (w/v) methyl cellulose solution was administered in the same manner.\nThe evaluation was carried out with the same method as described above. The case number in each administration group is 6 to 7. […]"}, "[2]": {"target": "trypsin (Homo sapiens, UniProt P07477)", "conditions": "known activity; cited from earlier work"}, "[3]": {"conditions": "intraperitoneal administration (Table 1)"}, "[4]": {"conditions": "intraperitoneal, 25 mg/kg/day once a day for 7 days, evaluated day 7 after photocoagulation"}, "[5]": {"conditions": "oral, 300 mg/kg/day (three times a day) for 7 days, evaluated day 7"}, "[6]": {"conditions": "oral, intravitreal and subconjunctival administration (Tables 2 to 4)"}}}
{"smiles": "N=C(N)c1ccc2cc(OC(=O)c3ccc(NC4=NCCN4)cc3)ccc2c1", "note": "[FUT-187, 6′-amidino-2′-naphthyl-(4-(4,5-dihydro-1H-2-imidazolyl)amino) benzoate dimethanesulfonate]", "values": [{"measurement": "choroidal neovascularization inhibitory effect (in words)", "setting": "[1]; [3]", "result": "exhibited a high choroidal neovascularization inhibition rate"}, {"measurement": "Choroidal neovascularization inhibition rate (%)", "setting": "[1]; [4]", "result": 40.1, "unit": "%"}, {"measurement": "Choroidal neovascularization inhibition rate (%)", "setting": "[1]; intraperitoneal, 125 mg/kg/day once a day for 7 days, evaluated day 7 after photocoagulation", "result": 71.4, "unit": "%"}, {"measurement": "Choroidal neovascularization inhibition rate (%)", "setting": "[1]; [5]", "result": 39.5, "unit": "%"}, {"measurement": "choroidal neovascularization inhibitory effect (in words)", "setting": "[1]; [6]", "result": "exhibits an excellent choroidal neovascularization inhibitory effect"}, {"measurement": "trypsin inhibitory activity (in words)", "setting": "[2]", "result": "have the same activity"}]}
{"smiles": "CCOC(=O)c1ccc(OC(=O)CCCCCNC(=N)N)cc1", "note": "[Gabexate, ethyl-4-(6-guanidinohexanoyloxy)benzoate methanesulfonate]", "values": [{"measurement": "choroidal neovascularization inhibitory effect (in words)", "setting": "[1]; [3]", "result": "did not exhibit a choroidal neovascularization inhibitory effect"}, {"measurement": "Choroidal neovascularization inhibition rate (%)", "setting": "[1]; intraperitoneal, 50 mg/kg/day once a day for 7 days, evaluated day 7 after photocoagulation", "result": "−30.2", "unit": "%"}, {"measurement": "trypsin inhibitory activity (in words)", "setting": "[2]", "result": "has a trypsin inhibitory activity"}]}
{"smiles": "N=C(N)Nc1ccc(C(=O)Oc2ccc3cc(C(=N)N)ccc3c2)cc1", "note": "[Nafamostat, 6′-amidino-2′-naphthyl-4-guanidinobenzoate dimethanesulfonate]", "values": [{"measurement": "choroidal neovascularization inhibitory effect (in words)", "setting": "[1]; [3]", "result": "exhibited a high choroidal neovascularization inhibition rate"}, {"measurement": "Choroidal neovascularization inhibition rate (%)", "setting": "[1]; [4]", "result": 50.5, "unit": "%"}, {"measurement": "Choroidal neovascularization inhibition rate (%)", "setting": "[1]; intravitreal, 10 nmol/eye, immediately after photocoagulation and on day 3, evaluated day 7", "result": 26.5, "unit": "%"}, {"measurement": "Choroidal neovascularization inhibition rate (%)", "setting": "[1]; [5]", "result": 32, "unit": "%"}, {"measurement": "choroidal neovascularization inhibitory effect (in words)", "setting": "[1]; [6]", "result": "exhibits an excellent choroidal neovascularization inhibitory effect"}, {"measurement": "Choroidal neovascularization inhibition rate (%)", "setting": "[1]; subconjunctival, 100 μg/eye/day once a day, evaluated day 7", "result": 51.6, "unit": "%"}, {"measurement": "trypsin inhibitory activity (in words)", "setting": "[2]", "result": "have the same activity"}]}
